# Data as given in the supplement of paper PMC11451515.
# What was measured:
# Assay in all cases: AUC of viability dose-response curve (% viability x log10 dose units); higher = less sensitive
# Conditions in all cases: 48 h
# NOMO1 = system: NOMO1
# Procedure, shortened: (§1)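 Leukemia cells adapted to each medium were seeded at 500 or 1000 cells/well in 1536-well plates and dosed with library compounds in DMSO at 11 threefold doses from 47 μM to 0.79 nM for 48 h at 37°C. CellTiter-Glo One luminescence was normalised per plate to DMSO and cell-free wells, then fitted with a four-parameter log-logistic model over log10 doses. Area under the curve was taken from this fit by the trapezoidal rule, with curves above full viability scaled and curves failing quality control removed.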
# P12-Ichikawa = system: P12-Ichikawa
# Procedure, shortened: as §1
# SEM cells = system: SEM cells
# Procedure, shortened: as §1
# [1] = RPMI 5 mM glucose + 10% dialyzed FBS
Structure (SMILES),AUC of viability dose-response curve (NOMO1; HPLM + 10% dialyzed FBS),AUC of viability dose-response curve (NOMO1; RPMI 5 mM glucose + 10% FBS),AUC of viability dose-response curve (NOMO1; [1]),AUC of viability dose-response curve (P12-Ichikawa; HPLM + 10% dialyzed FBS),AUC of viability dose-response curve (P12-Ichikawa; RPMI 5 mM glucose + 10% FBS),AUC of viability dose-response curve (P12-Ichikawa; [1]),AUC of viability dose-response curve (SEM cells; HPLM + 10% dialyzed FBS),AUC of viability dose-response curve (SEM cells; RPMI 5 mM glucose + 10% FBS),AUC of viability dose-response curve (SEM cells; [1])
CO[C@@]12[C@H](COC(N)=O)C/3=C(N1C[C@@H]4N[C@H]24)/C(=O)/C(=C(N)\C3=O)C,449,453,446,472,443,419,453,431,435
Cc1cn([C@H]2C=C[C@@H](CO)O2)c(=O)[nH]c1=O,474,435,453,468,475,474,465,450,469
OC1=CC=C(C=C1)\C2=C\OC3=C(C(=CC(=C3)O)O)C2=O,459,455,473,466,471,468,452,395,433
COc1ccc(OC)c(-c2nnc3ccc(-c4ccc(OC)c(O[C@@H]5CCOC5)c4)nn23)c1,463,477,469,473,458,466,477,470,473
O=C(CC12CC3CC(CC(C3)C1)C2)Nc1cccc2nc(NCCNCCO)ccc12,436,406,399,424,410,412,386,405,392
CCC(C)N1\N=C/N(C1=O)C2=CC=C(C=C2)N3CCN(CC3)C4=CC=C(OC[C@H]5CO[C@@](C[N]6C=NC=N6)(O5)C7=CC=C(Cl)C=C7Cl)C=C4 (stereo not given in full),448,456,454,458,463,458,468,472,452
COc1cc2ncn(-c3cc(OCc4ccccc4[S+](C)(=O)[O-])c(C#N)s3)c2cc1OC,443,435,457,450,450,428,457,461,470
CC(NC(C)(C)C)C(=O)c1cccc(Cl)c1 (stereo not given),448,476,456,470,473,472,444,433,436
C[C@@H]1CN(Cc2ccc(F)cc2)[C@@H](C)CN1C(=O)c1cc2c(C(=O)C(=O)N(C)C)cn(C)c2cc1Cl,467,474,475,471,472,471,462,413,449
CCC[S+](=O)([O-])Nc1ccc(F)c(C(=O)c2c[nH]c3ncc(Cl)cc23)c1F,403,437,440,439,450,431,409,419,425
CCN(CC)CCOc1ccc(Cc2ccccc2)cc1,403,431,464,417,446,409,442,380,409
CN(C)C1=CC(=CC=C1)C\2=C\3C(=O)N(NC3=C/C(=O)N2C)C4=CC=CC=C4Cl,292,314,314,312,327,342,322,317,311
CC(C)(F)C[C@H](N[C@@H](c1ccc(-c2ccc([S+](C)(=O)[O-])cc2)cc1)C(F)(F)F)C(=O)NC1(C#N)CC1,467,427,446,471,471,474,454,452,475
CN1C(=O)C(=C\C2=C1N=C(NC3=CC=CC(=C3)C(O)=O)N=C2)/C4=C(Cl)C=CC=C4Cl,465,467,461,468,465,463,439,405,426
[O-]C(=O)C/1=N/C(=O)NC(=O)N1,444,434,408,441,427,420,423,412,438
CC1(CN2CCC(n3c(=O)[nH]c4ccccc43)CC2)OCc2ccccc2-n2cccc21 (stereo not given),397,452,438,470,469,458,455,449,470
ClC1=CC=C2N/C3=N/C(=O)CN3CC2=C1Cl,456,445,410,464,456,452,468,446,456
CC(C)(S)[C@@H](N)C(=O)O,469,472,465,471,468,476,439,431,455
CC[N+](CC)(CC)CCOc1cccc(OCC[N+](CC)(CC)CC)c1OCC[N+](CC)(CC)CC,400,439,445,451,455,456,423,463,477
CC(C)=CCC/C(C)=C/CC/C(C)=C/CSc1ccccc1C(=O)O,393,432,395,402,366,390,348,355,374
Cc1cc(O)c2c(c1)C(=O)c1cccc(O)c1C2=O,460,475,460,465,472,466,445,439,449
NC[C@@H]1O[C@H](O[C@H]2[C@@H](O)[C@H](O[C@@H]3[C@@H](O)[C@H](N)C[C@H](N)[C@H]3O[C@H]3O[C@H](CN)[C@@H](O)[C@H](O)[C@H]3N)O[C@@H]2CO)[C@H](N)[C@@H](O)[C@@H]1O.O=S(=O)(O)O.O=S(=O)(O)O.O=S(=O)(O)O,468,465,428,473,467,461,476,463,458
CC1=C(/C=C/C(C)=C/C=C/C(C)=C\C(=O)O)C(C)(C)CCC1,438,408,420,445,400,415,405,450,379
C[C@@H]1O[C@@H](O[C@H]2C[C@@H](O)[C@]3(CO)[C@H]4[C@H](O)C[C@]5(C)[C@@H](C6=CC(=O)OC6)CC[C@]5(O)[C@@H]4CC[C@]3(O)C2)[C@H](O)[C@H](O)[C@H]1O,197,248,227,203,235,211,179,234,216
CCOC(=O)N1c2ccc(C(F)(F)F)cc2[C@@H](N(Cc2cc(C(F)(F)F)cc(C(F)(F)F)c2)C(=O)OC)C[C@H]1CC,434,460,470,449,466,471,462,460,468
Clc1cccc(-n2nnnc2NCc2ccccc2Oc2ccccn2)c1Cl,472,472,470,458,467,441,439,470,474
O=C(NCCCCN1CCOCC1)c1cc2ccccc2o1,459,462,451,467,440,448,441,440,457
C[C@@H](NCCCc1cccc(C(F)(F)F)c1)c1cccc2ccccc12,455,418,447,455,455,439,467,458,445
O=C(CCCCCCC(=O)Nc1cccnc1)NO,435,399,432,400,374,368,401,402,375
CC[S+](=O)([O-])Nc1ccc2c(c1)/C(=C(/Nc1ccc(CN3CCCCC3)cc1)c1ccccc1)C(=O)N2,335,314,323,276,274,297,223,232,230
